# Results from US20250057846A1, “COMBINATION OF A TASK1/3 CHANNEL BLOCKER WITH A MUSCARINIC RECEPTOR ANTAGONIST FOR THE TREATMENT OF SLEEP APNEA” (BAYER AKTIENGESELLSCHAFT, priority 2021, published 2025).
# Test system: pig model of obstructive sleep apnea (OSA)
# Experiment: pig model of obstructive sleep apnea (OSA): collapsibility of the upper respiratory tract under negative pressure
# Assay type: in vivo, German Landrace pigs
# Description: The therapeutic potential of the combination of a TASK1/3 channel blocker with a muscarinic receptor antagonist according to the present invention in sleep apnea can be assessed preclinically in a pig model of obstructive sleep apnea (OSA).
# Using negative pressure, it is possible to induce collapse and thus obstruction of the upper respiratory tract in anaesthetized, spontaneously breathing pigs (Wirth K. J. et al., Sleep 36(5) (2013) pp. 699-708).
# German Landrace pigs are used for the model. The pigs are anaesthetized and tracheotomized. Two tracheal cannulas are inserted into the trachea, one into the rostral part and the other into the caudal part of the trachea.
# Using a connection piece, the rostral cannula is connected to a tube to the negative pressure device and to the distal tracheal cannula. The distal tracheal cannula is additionally connected to a tube with an open end to atmosphere via a connection piece that served for free tracheal breathing, circumventing the upper airway. By appropriate opening and clamping of those tubes breathing can be switched from nasal breathing to breathing through the caudal tracheal cannula, circumventing the upper airway, and the (isolated) upper airway can be connected to the negative pressure device, causing airflow in the inspiratory direction.
# At certain points in time, the collapsibility of the upper respiratory tract is tested by having the pig breathe via the caudal cannula and applying negative pressures of −50, −100 and −150 cm water head (cm H2O) to the upper respiratory tract. This causes the upper respiratory tract to collapse, which manifests itself in an interruption of the airflow and a pressure drop in the tube system. This test is conducted prior to the administration of the test substance and at certain intervals after the administration of the test substance. An appropriately effective test substance can prevent this collapse of the respiratory tract in the inspiratory phase.
# [1] = R-oxybutynin i.v. bolus 1 mg/kg then i.v. infusion 0.275 mg/kg/h for four hours, given at 0 min, time 0 min
# [2] = R-oxybutynin i.v. bolus 1 mg/kg then i.v. infusion 0.275 mg/kg/h for four hours, given at 0 min, time 10 min
# [3] = R-oxybutynin i.v. bolus 1 mg/kg then i.v. infusion 0.275 mg/kg/h for four hours, given at 0 min, time 30 min
# [4] = R-oxybutynin i.v. bolus 1 mg/kg then i.v. infusion 0.275 mg/kg/h for four hours, given at 0 min, time 60 min
# [5] = R-oxybutynin i.v. bolus 1 mg/kg then i.v. infusion 0.275 mg/kg/h for four hours, given at 0 min, time 120 min
# [6] = R-oxybutynin i.v. bolus 1 mg/kg then i.v. infusion 0.275 mg/kg/h for four hours, given at 0 min, time 180 min
# [7] = R-oxybutynin i.v. bolus 1 mg/kg then i.v. infusion 0.275 mg/kg/h for four hours, given at 0 min, time 240 min
# [8] = R-oxybutynin i.v. bolus 1 mg/kg then i.v. infusion 0.275 mg/kg/h for four hours, given at 0 min, time 300 min
# [9] = combination experiment: R-oxybutynin i.v. bolus 1 mg/kg then infusion 0.275 mg/kg/h for four hours at 0 min, nasal TASK1/3 channel blocker only given at 120 min, time 0 min
# [10] = combination experiment: R-oxybutynin i.v. bolus 1 mg/kg then infusion 0.275 mg/kg/h for four hours at 0 min, nasal TASK1/3 channel blocker only given at 120 min, time 10 min
# [11] = combination experiment: R-oxybutynin i.v. bolus 1 mg/kg then infusion 0.275 mg/kg/h for four hours at 0 min, nasal TASK1/3 channel blocker only given at 120 min, time 30 min
# [12] = combination experiment: R-oxybutynin i.v. bolus 1 mg/kg then infusion 0.275 mg/kg/h for four hours at 0 min, nasal TASK1/3 channel blocker only given at 120 min, time 60 min
# [13] = combination experiment: R-oxybutynin i.v. bolus 1 mg/kg then infusion 0.275 mg/kg/h for four hours at 0 min, nasal TASK1/3 channel blocker only given at 120 min, time 90 min
# [14] = combination experiment: R-oxybutynin i.v. bolus 1 mg/kg then infusion 0.275 mg/kg/h for four hours at 0 min, time 120 min = time of nasal application of TASK1/3 channel blocker
# [15] = TASK1/TASK3 channel blocker alone, intranasal 0.3 μg, given at 0 min, time 0 min
# [16] = TASK1/TASK3 channel blocker alone, intranasal 0.3 μg, given at 0 min, time 10 min
# [17] = TASK1/TASK3 channel blocker alone, intranasal 0.3 μg, given at 0 min, time 30 min
# [18] = TASK1/TASK3 channel blocker alone, intranasal 0.3 μg, given at 0 min, time 60 min
# [19] = TASK1/TASK3 channel blocker alone, intranasal 0.3 μg, given at 0 min, time 90 min
# [20] = oxybutynin i.v. bolus 1 mg/kg then i.v. infusion 0.275 mg/kg/h for four hours, given at 0 min, time 0 min
structure (smiles),measurement,setting,value
"CCN(CC)CC#CCOC(=O)[C@](O)(c1ccccc1)C1CCCCC1 [R-oxybutynin, R-Oxybutynin]","time points at which upper airway collapsibility was inhibited at all negative pressures of −50, −100 and −150 cm head (cm H2O) in all pigs","R-Oxybutynin i.v. bolus 1 mg/kg then i.v. infusion 0,275 mg/kg/h for four hours",at no time
same,upper airway collapsibility at the negative pressure of −50 cm head (cm H2O),"R-Oxybutynin i.v. bolus 1 mg/kg then i.v. infusion 0,275 mg/kg/h for four hours, time point 60 min after intravenous administration",inhibited
same,"Percent pigs without collaps −50 cm H2O, %",[1],0%
same,"Percent pigs without collaps −100 cm H2O, %",[1],0%
same,"Percent pigs without collaps −150 cm H2O, %",[1],0%
same,"Percent pigs without collaps −50 cm H2O, %",[2],0%
same,"Percent pigs without collaps −100 cm H2O, %",[2],0%
same,"Percent pigs without collaps −150 cm H2O, %",[2],0%
same,"Percent pigs without collaps −50 cm H2O, %",[3],0%
same,"Percent pigs without collaps −100 cm H2O, %",[3],0%
same,"Percent pigs without collaps −150 cm H2O, %",[3],0%
same,"Percent pigs without collaps −50 cm H2O, %",[4],100%
same,"Percent pigs without collaps −100 cm H2O, %",[4],50%
same,"Percent pigs without collaps −150 cm H2O, %",[4],0%
same,"Percent pigs without collaps −50 cm H2O, %",[5],0%
same,"Percent pigs without collaps −100 cm H2O, %",[5],0%
same,"Percent pigs without collaps −150 cm H2O, %",[5],0%
same,"Percent pigs without collaps −50 cm H2O, %",[6],0%
same,"Percent pigs without collaps −100 cm H2O, %",[6],0%
same,"Percent pigs without collaps −150 cm H2O, %",[6],0%
same,"Percent pigs without collaps −50 cm H2O, %",[7],0%
same,"Percent pigs without collaps −100 cm H2O, %",[7],0%
same,"Percent pigs without collaps −150 cm H2O, %",[7],0%
same,"Percent pigs without collaps −50 cm H2O, %",[8],0%
same,"Percent pigs without collaps −100 cm H2O, %",[8],0%
same,"Percent pigs without collaps −150 cm H2O, %",[8],0%
same,"Percent pigs without collaps −50 cm H2O, %",[9],0%
same,"Percent pigs without collaps −100 cm H2O, %",[9],0%
same,"Percent pigs without collaps −150 cm H2O, %",[9],0%
same,"Percent pigs without collaps −50 cm H2O, %",[10],0%
same,"Percent pigs without collaps −100 cm H2O, %",[10],0%
same,"Percent pigs without collaps −150 cm H2O, %",[10],0%
same,"Percent pigs without collaps −50 cm H2O, %",[11],0%
same,"Percent pigs without collaps −100 cm H2O, %",[11],0%
same,"Percent pigs without collaps −150 cm H2O, %",[11],0%
same,"Percent pigs without collaps −50 cm H2O, %",[12],100%
same,"Percent pigs without collaps −100 cm H2O, %",[12],33%
same,"Percent pigs without collaps −150 cm H2O, %",[12],0%
same,"Percent pigs without collaps −50 cm H2O, %",[13],0%
same,"Percent pigs without collaps −100 cm H2O, %",[13],0%
same,"Percent pigs without collaps −150 cm H2O, %",[13],0%
same,"Percent pigs without collaps −50 cm H2O, %",[14],0%
same,"Percent pigs without collaps −100 cm H2O, %",[14],0%
same,"Percent pigs without collaps −150 cm H2O, %",[14],0%
"COc1ccc(Cl)c(C(=O)N2C3CCC2CN(Cc2c(-c4ccc(C(C)C)cc4)nc4ncccn24)C3)n1 [(3-Chloro-6-methoxypyridin-2-yl)(3-{[2-(4-isopropylphenyl)imidazo[1,2-a]pyrimidin-3-yl]methyl}-3,8-diazabicyclo[3.2.1]oct-8-yl)methanone]",effect of the dose on upper airway collapsibility,"TASK1/TASK3 channel blocker alone, 0.3 μg",non effective dose
same,"Percent pigs without collaps −50 cm H2O, %",[15],0%
same,"Percent pigs without collaps −100 cm H2O, %",[15],0%
same,"Percent pigs without collaps −150 cm H2O, %",[15],0%
same,"Percent pigs without collaps −50 cm H2O, %",[16],33%
same,"Percent pigs without collaps −100 cm H2O, %",[16],33%
same,"Percent pigs without collaps −150 cm H2O, %",[16],0%
same,"Percent pigs without collaps −50 cm H2O, %",[17],0%
same,"Percent pigs without collaps −100 cm H2O, %",[17],0%
same,"Percent pigs without collaps −150 cm H2O, %",[17],0%
same,"Percent pigs without collaps −50 cm H2O, %",[18],0%
same,"Percent pigs without collaps −100 cm H2O, %",[18],0%
same,"Percent pigs without collaps −150 cm H2O, %",[18],0%
same,"Percent pigs without collaps −50 cm H2O, %",[19],0%
same,"Percent pigs without collaps −100 cm H2O, %",[19],0%
same,"Percent pigs without collaps −150 cm H2O, %",[19],0%
"CCN(CC)CC#CCOC(=O)C(O)(c1ccccc1)C1CCCCC1 (stereo not shown) [oxybutynin, Oxybutynin]","Percent pigs without collaps −50 cm H2O, %",[20],0%
same,"Percent pigs without collaps −100 cm H2O, %",[20],0%
same,"Percent pigs without collaps −150 cm H2O, %",[20],0%
same,"time points at which upper airway collapsibility was inhibited at all three negative pressures of −50, −100 and −150 cm head (cm H2O) in all pigs","oxybutynin i.v. bolus 1 mg/kg then i.v. infusion 0,275 mg/kg/h for four hours",at no time point
